Data on 26 compounds can be found in patent publication US8299111B2, “Compounds which modulate the CB2 receptor” (Boehringer Ingelheim International GmbH, priority 2006, dated 2012).

T1 sequence (P34972 whole entry): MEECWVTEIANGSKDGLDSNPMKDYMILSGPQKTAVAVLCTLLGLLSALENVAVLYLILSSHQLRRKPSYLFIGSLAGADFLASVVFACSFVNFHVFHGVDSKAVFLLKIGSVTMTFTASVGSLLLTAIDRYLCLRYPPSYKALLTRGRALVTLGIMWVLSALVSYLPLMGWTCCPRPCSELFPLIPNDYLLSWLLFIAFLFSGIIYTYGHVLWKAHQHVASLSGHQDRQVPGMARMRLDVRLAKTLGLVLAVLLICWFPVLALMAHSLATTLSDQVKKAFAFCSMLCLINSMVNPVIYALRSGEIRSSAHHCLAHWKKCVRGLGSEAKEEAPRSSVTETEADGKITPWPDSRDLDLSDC

The assay has as its target T1, human CB2R (Homo sapiens, UniProt P34972).
T1 construct: host or cells: CHO cells
The assay can be described thus: CB2R mediated modulation of cAMP synthesis. It counts as cell-based. The settings on record: found through the use of the above described assays (binding and cAMP); CHO cells expressing human CB2R, forskolin-stimulated cAMP. Summed up: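 EC50 values reflect inhibition of cAMP made in response to 10 uM forskolin (with 1 mM IBMX, 0.25% BSA) over 30 min at 37 °C in human CB2R-expressing CHO cells. The window runs from forskolin alone to 1 uM CP55940; curves fitted with a four-parameter logistic model.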
In the case of `Cc1sc(NC(=O)C(C)(C)S(=O)(=O)c2ccc(Cl)cc2)nc1-c1ccc(F)cc1` [2-[(4-chlorophenyl)sulfonyl]-N-[4-(4-fluorophenyl)-5-methyl-1,3-thiazol-2-yl]-2-methylpropanamide], the agonistic activity result was “agonistic activity”.
Regarding `Cc1sc(NC(=O)C(C)(C)S(=O)(=O)c2ccc(C(F)(F)F)nc2)nc1-c1ccccc1` [2-methyl-N-(5-methyl-4-phenyl-1,3-thiazol-2-yl)-2-{[6-(trifluoromethyl)pyridin-3-yl]sulfonyl}propanamide], the agonistic activity result is reported as “agonistic activity”.
As to `CC(C)(C)c1cc(NC(=O)C(C)(C)S(=O)(=O)c2ccccc2F)no1` [N-(5-tert-Butyl-isoxazol-3-yl)-2-(2-fluoro-benzenesulfonyl)-2-methyl-propionamide], the agonistic activity result was “agonistic activity”.
`CC(C)(C)c1csc(NC(=O)C2(S(=O)(=O)c3ccc(C(F)(F)F)cc3)CC2)n1` [1-(4-Trifluoromethyl-benzenesulfonyl)-cyclopropanecarboxylic acid (4-tert-butyl-thiazol-2-yl)-amide]: the agonistic activity result was “agonistic activity”.
`CC(C)(C(=O)Nc1cc(-c2ccccc2)on1)S(=O)(=O)c1ccc(Cl)cc1` [2-(4-Chloro-benzenesulfonyl)-2-methyl-N-(5-phenyl-isoxazol-3-yl)-propionamide]: the agonistic activity result is given as “agonistic activity”.
As to `CC(C)(C(=O)Nc1ccc(C(F)(F)F)cn1)S(=O)(=O)c1ccccc1F` [2-(2-Fluoro-benzenesulfonyl)-2-methyl-N-(5-trifluoromethyl-pyridin-2-yl)-propionamide], the agonistic activity result is on record as “agonistic activity”.
In the case of `O=C(Nc1cccc(C(F)(F)F)n1)C1(S(=O)(=O)c2ccc(C(F)(F)F)cc2)CCOCC1` [4-(4-Trifluoromethyl-benzenesulfonyl)-tetrahydro-pyran-4-carboxylic acid (6-trifluoromethyl-pyridin-2-yl)-amide] it was “agonistic activity”; in that of `CCc1ccnc(NC(=O)C(C)(C)S(=O)(=O)c2ccc(Cl)cc2F)c1` [2-[(4-chloro-2-fluorophenyl)sulfonyl]-N-(4-ethylpyridin-2-yl)-2-methylpropanamide], “agonistic activity”; in that of `CC(C)(C)c1cc(NC(=O)C(C)(C)S(=O)(=O)c2ccc(Cl)cc2F)no1` [N-(5-tert-Butyl-isoxazol-3-yl)-2-(4-chloro-2-fluoro-benzenesulfonyl)-2-methyl-propionamide], “agonistic activity”.
`Cc1ccc(S(=O)(=O)C(C)(C)C(=O)Nc2cc(C(C)(C)C)nn2C)cc1` [N-(5-tert-Butyl-2-methyl-2H-pyrazol-3-yl)-2-methyl-2-(toluene-4-sulfonyl)-propionamide]: the agonistic activity entry was “agonistic activity”.
For `CC(C)(C(=O)Nc1ccc(C(F)(F)F)cn1)S(=O)(=O)c1ccc(S(C)(=O)=O)cc1` [2-methyl-2-{[4-(methylsulfonyl)phenyl]sulfonyl}-N-[5-(trifluoromethyl)pyridin-2-yl]propanamide], the agonistic activity result was “agonistic activity”.
`Cn1nc(C2CC2)cc1NC(=O)C(C)(C)S(=O)(=O)c1ccc(Cl)cc1` [2-(4-Chloro-benzenesulfonyl)-N-(5-cyclopropyl-2-methyl-2H-pyrazol-3-yl)-2-methyl-propionamide]: the agonistic activity entry is given as “agonistic activity”.
As for `CC(C)(C(=O)Nc1nnc(C(F)(F)F)s1)S(=O)(=O)c1ccc(Cl)cc1` [2-(4-Chloro-benzenesulfonyl)-2-methyl-N-(5-trifluoromethyl-[1,3,4]thiadiazol-2-yl)-propionamide], the agonistic activity result is given as “agonistic activity”.
Consider `CC(C)(C(=O)Nc1cccc(C(F)(F)F)n1)S(=O)(=O)c1ccc(S(C)(=O)=O)cc1` [2-methyl-2-{[4-(methylsulfonyl)phenyl]sulfonyl}-N-[6-(trifluoromethyl)pyridin-2-yl]propanamide], for which the agonistic activity result is “agonistic activity”.
In the case of `Cn1c(NC(=O)C(C)(C)S(=O)(=O)c2ccc(Cl)cc2)nc2ccccc21` [2-(4-Chloro-benzenesulfonyl)-2-methyl-N-(1-methyl-1H-benzoimidazol-2-yl)-propionamide] it was “agonistic activity”.
Under `CC(C)(C)c1cc(NC(=O)C(C)(C)S(=O)(=O)c2cccc3cccnc23)no1` [N-(5-tert-Butyl-isoxazol-3-yl)-2-methyl-2-(quinoline-8-sulfonyl)-propionamide] stands “agonistic activity”; under `Cc1ccc(S(=O)(=O)C(C)(C)C(=O)Nc2cc(C(C)(C)C)no2)cc1` [N-(3-tert-Butyl-isoxazol-5-yl)-2-methyl-2-(toluene-4-sulfonyl)-propionamide], “agonistic activity”.
On to `CC(C)(C)c1cc(NC(=O)CS(=O)(=O)c2ccc(C(F)(F)F)cc2)no1` [N-(5-tert-Butyl-isoxazol-3-yl)-2-(4-trifluoromethyl-benzenesulfonyl)-acetamide], for which the agonistic activity result is on record as “agonistic activity”.
In the case of `CC(C)C(C(=O)Nc1cccc(C(F)(F)F)n1)S(=O)(=O)c1ccc(C(F)(F)F)cc1` (centres unmarked) [3-Methyl-2-(4-trifluoromethyl-benzenesulfonyl)-N-(6-trifluoromethyl-pyridin-2-yl)-butyramide] it was “agonistic activity”; in that of `CC(C)(C)Cc1cc(NC(=O)C(C)(C)S(=O)(=O)c2ccc(F)cc2F)on1` [2-[(2,4-difluorophenyl)sulfonyl]-N-[3-(2,2-dimethylpropyl)isoxazol-5-yl]-2-methylpropanamide], “agonistic activity”.
Take `CC(C)(C)c1cc(NC(=O)C(C)(C)S(=O)(=O)c2ccc(F)cc2F)on1` [N-(3-tert-Butyl-isoxazol-5-yl)-2-(2,4-difluoro-benzenesulfonyl)-2-methyl-propionamide]: the agonistic activity entry is “agonistic activity”.
For `CC(C)(C)c1cc(NC(=O)C(C)(C)S(=O)(=O)c2ccc(Cl)cc2)[nH]n1` [N-(5-tert-Butyl-2H-pyrazol-3-yl)-2-(4-chloro-benzenesulfonyl)-2-methyl-propionamide], the agonistic activity result is on record as “agonistic activity”.
In the case of `Cc1cnc(NC(=O)C(C)(C)S(=O)(=O)c2ccc(C(F)(F)F)cc2)s1` [2-Methyl-N-(5-methyl-thiazol-2-yl)-2-(4-trifluoromethyl-benzenesulfonyl)-propionamide], the agonistic activity entry was “agonistic activity”.
With `CC(C)(C)c1cccc(NC(=O)C(C)(C)S(=O)(=O)c2ccc(Cl)cc2F)c1` [N-(3-tert-butylphenyl)-2-[(4-chloro-2-fluorophenyl)sulfonyl]-2-methylpropanamide], the agonistic activity result is “agonistic activity”.
Turning to `CC(C)(C(=O)Nc1cccc(C(F)(F)F)n1)S(=O)(=O)c1ccc(N2CCC2)nc1` [2-(6-Azetidin-1-yl-pyridine-3-sulfonyl)-2-methyl-N-(6-trifluoromethyl-pyridin-2-yl)-propionamide], the agonistic activity result was “agonistic activity”.
Regarding `CC(C)(C)c1nc(NC(=O)C(C)(C)S(=O)(=O)c2ccc(Cl)cc2)sc1C#N` [N-(4-tert-butyl-5-cyano-1,3-thiazol-2-yl)-2-[(4-chlorophenyl)sulfonyl]-2-methylpropanamide], the agonistic activity result is listed as “agonistic activity”.
